Values quoted from earlier work, collected in PMC10891214, “Effects of food and ethnicity on the pharmacokinetics of venadaparib, a next-generation PARP inhibitor, in healthy Korean, Caucasian, and Chinese male subjects” (Investigational New Drugs, 2023).

Test system: patient-derived xenograft
Parameters: method as in PMID 36808277
Conditions: patient-derived xenograft mouse model; cited from earlier work

O=C(c1cc(Cc2n[nH]c(=O)c3ccccc23)ccc1F)N1CCN(C(=O)C2CC2)CC1 [olaparib, reference compound]
Tumor growth inhibition rate: 118.2%
